Laboratory results from ChEMBL document CHEMBL1687748 (Antimicrob Agents Chemother, 2009).
Converted amounts (≈) assume the structure as drawn.

How the values were obtained:
Format in all cases: functional
Bacillus anthracis [1] = experiment: Total sensitive organism counts of toxin and capsule gene-deficient Bacillus anthracis Sterne in hollow-fiber pharmacodynamic infection model at 150 mg administered as continuous infusion by Bayesian method
Bacillus anthracis [2] = experiment: Growth rate constant for compound-sensitive toxin and capsule gene-deficient Bacillus anthracis Sterne in hollow-fiber pharmacodynamic infection model at 150 mg, qd by Bayesian method
Bacillus anthracis [3] = experiment: Hill constant for compound-sensitive toxin and capsule gene-deficient Bacillus anthracis Sterne in hollow-fiber pharmacodynamic infection model at 100 mg administered as continuous infusion by Bayesian method
Bacillus anthracis [4] = experiment: Hill constant for compound-sensitive toxin and capsule gene-deficient Bacillus anthracis Sterne in hollow-fiber pharmacodynamic infection model at 100 mg, qd by Bayesian method
Bacillus anthracis [5] = experiment: Growth rate constant of vegetative-phase cells going to spore phase in toxin and capsule gene-deficient Bacillus anthracis Sterne in hollow-fiber pharmacodynamic infection model at 150 mg administered as continuous infusion by Bayesian method
Bacillus anthracis [6] = experiment: Antimicrobial activity against toxin and capsule gene-deficient Bacillus anthracis Sterne after 24 hrs by […] method
Bacillus anthracis [7] = experiment: Kill rate constant for compound-sensitive toxin and capsule gene-deficient Bacillus anthracis Sterne in hollow-fiber pharmacodynamic infection model at 200 mg administered as continuous infusion by Bayesian method
Bacillus anthracis [8] = experiment: Hill constant for compound-sensitive toxin and capsule gene-deficient Bacillus anthracis Sterne in hollow-fiber pharmacodynamic infection model at 50 mg, qd by Bayesian method
Bacillus anthracis [9] = experiment: Growth rate constant of vegetative-phase cells going to spore phase in toxin and capsule gene-deficient Bacillus anthracis Sterne in hollow-fiber pharmacodynamic infection model at 200 mg administered as continuous infusion by Bayesian method
Bacillus anthracis [10] = experiment: Kill rate constant for compound-sensitive toxin and capsule gene-deficient Bacillus anthracis Sterne in hollow-fiber pharmacodynamic infection model at 50 mg, qd by Bayesian method
Bacillus anthracis [11] = experiment: Total sensitive organism counts of toxin and capsule gene-deficient Bacillus anthracis Sterne in hollow-fiber pharmacodynamic infection model at 200 mg administered as continuous infusion by Bayesian method
Bacillus anthracis [12] = experiment: Growth rate constant of spore-phase cells going to vegetative phase in toxin and capsule gene-deficient Bacillus anthracis Sterne in hollow-fiber pharmacodynamic infection model at 250 mg, qd by Bayesian method
Bacillus anthracis [13] = experiment: Kill rate constant for compound-sensitive toxin and capsule gene-deficient Bacillus anthracis Sterne in hollow-fiber pharmacodynamic infection model at 200 mg, qd by Bayesian method
Bacillus anthracis [14] = experiment: Growth rate constant for compound-sensitive toxin and capsule gene-deficient Bacillus anthracis Sterne in hollow-fiber pharmacodynamic infection model administered for every 24 hrs
Bacillus anthracis [15] = experiment: Growth rate constant of vegetative-phase cells going to spore phase in toxin and capsule gene-deficient Bacillus anthracis Sterne in hollow-fiber pharmacodynamic infection model administered for every 24 hrs
Bacillus anthracis [16] = experiment: Growth rate constant of spore-phase cells going to vegetative phase in toxin and capsule gene-deficient Bacillus anthracis Sterne in hollow-fiber pharmacodynamic infection model at 100 mg administered as continuous infusion by Bayesian method
Bacillus anthracis [17] = experiment: Growth rate constant of spore-phase cells going to vegetative phase in toxin and capsule gene-deficient Bacillus anthracis Sterne in hollow-fiber pharmacodynamic infection model at 250 mg administered as continuous infusion by Bayesian method
Bacillus anthracis [18] = experiment: Growth rate constant of vegetative-phase cells going to spore phase in toxin and capsule gene-deficient Bacillus anthracis Sterne in hollow-fiber pharmacodynamic infection model at 100 mg administered as continuous infusion by Bayesian method
Bacillus anthracis [19] = experiment: Kill rate constant for compound-sensitive toxin and capsule gene-deficient Bacillus anthracis Sterne in hollow-fiber pharmacodynamic infection model administered for every 24 hrs
Bacillus anthracis [20] = experiment: Kill rate constant for compound-sensitive toxin and capsule gene-deficient Bacillus anthracis Sterne in hollow-fiber pharmacodynamic infection model at 150 mg, qd by Bayesian method
Bacillus anthracis [21] = experiment: Total spore counts of toxin and capsule gene-deficient Bacillus anthracis Sterne in hollow-fiber pharmacodynamic infection model at 250 mg administered as continuous infusion by Bayesian method
Bacillus anthracis [22] = experiment: Growth rate constant for compound-sensitive toxin and capsule gene-deficient Bacillus anthracis Sterne in hollow-fiber pharmacodynamic infection model at 200 mg administered as continuous infusion by Bayesian method
Bacillus anthracis [23] = experiment: Total sensitive organism counts of toxin and capsule gene-deficient Bacillus anthracis Sterne in hollow-fiber pharmacodynamic infection model at 50 mg, qd by Bayesian method
Bacillus anthracis [24] = experiment: Growth rate constant for compound-sensitive toxin and capsule gene-deficient Bacillus anthracis Sterne in hollow-fiber pharmacodynamic infection model at 200 mg, qd by Bayesian method
Bacillus anthracis [25] = experiment: Growth rate constant of spore-phase cells going to vegetative phase in toxin and capsule gene-deficient Bacillus anthracis Sterne in hollow-fiber pharmacodynamic infection model at 150 mg administered as continuous infusion by Bayesian method
Bacillus anthracis [26] = experiment: Hill constant for compound-sensitive toxin and capsule gene-deficient Bacillus anthracis Sterne in hollow-fiber pharmacodynamic infection model administered for every 24 hrs
Bacillus anthracis [27] = experiment: Total sensitive organism counts of toxin and capsule gene-deficient Bacillus anthracis Sterne in hollow-fiber pharmacodynamic infection model at 250 mg, qd by Bayesian method
Bacillus anthracis [28] = experiment: Hill constant for compound-sensitive toxin and capsule gene-deficient Bacillus anthracis Sterne in hollow-fiber pharmacodynamic infection model at 150 mg, qd by Bayesian method
Bacillus anthracis [29] = experiment: Total sensitive organism counts of toxin and capsule gene-deficient Bacillus anthracis Sterne in hollow-fiber pharmacodynamic infection model at 200 mg, qd by Bayesian method
Bacillus anthracis [30] = experiment: Growth rate constant of vegetative-phase cells going to spore phase in toxin and capsule gene-deficient Bacillus anthracis Sterne in hollow-fiber pharmacodynamic infection model at 50 mg, qd by Bayesian method
Bacillus anthracis [31] = experiment: Antimicrobial activity against toxin and capsule gene-deficient Bacillus anthracis Sterne after 24 hrs by macrobroth dilution method
Bacillus anthracis [32] = experiment: Growth rate constant of spore-phase cells going to vegetative phase in toxin and capsule gene-deficient Bacillus anthracis Sterne in hollow-fiber pharmacodynamic infection model at 50 mg, qd by Bayesian method
Bacillus anthracis [33] = experiment: Total sensitive organism counts of toxin and capsule gene-deficient Bacillus anthracis Sterne in hollow-fiber pharmacodynamic infection model administered for every 24 hrs
Bacillus anthracis [34] = experiment: Total spore counts of toxin and capsule gene-deficient Bacillus anthracis Sterne in hollow-fiber pharmacodynamic infection model administered for every 24 hrs
Bacillus anthracis [35] = experiment: Growth rate constant of vegetative-phase cells going to spore phase in toxin and capsule gene-deficient Bacillus anthracis Sterne in hollow-fiber pharmacodynamic infection model at 250 mg administered as continuous infusion by Bayesian method
Bacillus anthracis [36] = experiment: Growth rate constant for compound-sensitive toxin and capsule gene-deficient Bacillus anthracis Sterne in hollow-fiber pharmacodynamic infection model at 50 mg, qd by Bayesian method
Bacillus anthracis [37] = experiment: Growth rate constant of vegetative-phase cells going to spore phase in toxin and capsule gene-deficient Bacillus anthracis Sterne in hollow-fiber pharmacodynamic infection model administered as continuous infusion

COc1c(N2C[C@@H]3CCCN[C@@H]3C2)c(F)cc2c(=O)c(C(=O)O)cn(C3CC3)c12 [MOXIFLOXACIN]
CFU/ml (Bacillus anthracis [1]): 23500000 | Activity (Bacillus anthracis [2]): 7.42 h⁻¹ | Activity (Bacillus anthracis [3]): 20.9 h⁻¹ | Activity (Bacillus anthracis [4]): 30 h⁻¹ | Activity (Bacillus anthracis [5]): 4.94 h⁻¹ | MBC (Bacillus anthracis [6]): 1 µg/mL (≈ 2.49 µM) | Activity (Bacillus anthracis [7]): 8.28 h⁻¹ | Activity (Bacillus anthracis [8]): 5.84 h⁻¹ | Activity (Bacillus anthracis [9]): 5.3 h⁻¹ | Activity (Bacillus anthracis [10]): 6.24 h⁻¹ | CFU/ml (Bacillus anthracis [11]): 20600000 | Activity (Bacillus anthracis [12]): 1.04 h⁻¹ | Activity (Bacillus anthracis [13]): 4.29 h⁻¹ | Activity (Bacillus anthracis [14]): 8.24 h⁻¹ | Activity (Bacillus anthracis [15]): 4.96 h⁻¹ | Activity (Bacillus anthracis [16]): 10.1 h⁻¹ | Activity (Bacillus anthracis [17]): 7.23 h⁻¹ | Activity (Bacillus anthracis [18]): 1.17 h⁻¹ | Activity (Bacillus anthracis [19]): 8.24 h⁻¹ | Activity (Bacillus anthracis [20]): 6.58 h⁻¹ | CFU/ml (Bacillus anthracis [21]): 1860000 | Activity (Bacillus anthracis [22]): 8.25 h⁻¹ | CFU/ml (Bacillus anthracis [23]): 19600000 | Activity (Bacillus anthracis [24]): 1.81 h⁻¹ | Activity (Bacillus anthracis [25]): 9.06 h⁻¹ | Activity (Bacillus anthracis [26]): 29.8 h⁻¹ | CFU/ml (Bacillus anthracis [27]): 36000000 | Activity (Bacillus anthracis [28]): 30 h⁻¹ | CFU/ml (Bacillus anthracis [29]): 53600000 | Activity (Bacillus anthracis [30]): 0.0657 h⁻¹ | MIC (Bacillus anthracis [31]): 0.06 µg/mL (≈ 0.149 µM) | Activity (Bacillus anthracis [32]): 2.91 h⁻¹ | CFU/ml (Bacillus anthracis [33]): 41200000 | CFU/ml (Bacillus anthracis [34]): 1740000 | Activity (Bacillus anthracis [35]): 5.18 h⁻¹ | Activity (Bacillus anthracis [36]): 5.14 h⁻¹ | Activity (Bacillus anthracis [37]): 1.2 h⁻¹
